Data reported in ChEMBL document CHEMBL6096721, “Discovery of Selenium-Containing Derivatives as Potent and Orally Bioavailable GLP-1R Agonists” (J Med Chem, 2025).
Calls of active or inactive are those of the source. No cut-off for these calls is given here.

Legend:
Mus musculus [1] = test: Appetite suppressing activity in human GLP-1R knockin male mouse model assessed as reduction in food intake at 30 mg/kg, sc measured after 2.5 to 12 hrs; assay type: functional, organism-based; conditions: time 2.5-12 hrs
Mus musculus [2] = test: Antidiabetic activity in human GLP-1R knockin male mouse model assessed as reduction in blood glucose level at 2 mg/kg, IG preadministered with compound for 1 hrs followed by first dose of glucose administration for 3 hrs and measured after 300 mins of second glucose administration by oral glucose tolerance test; assay type: functional, organism-based; conditions: time 540.0 min
Mus musculus [3] = test: Antidiabetic activity in human GLP-1R knockin male mouse model assessed as reduction in blood glucose level at 2 mg/kg, IG preadministered with compound for 1 hrs followed by glucose administration for 3 hrs by oral glucose tolerance test; assay type: functional, organism-based; conditions: time 4.0 hrs
Mus musculus [4] = test: Appetite suppressing activity in human GLP-1R knockin male mouse model assessed as reduction in food intake at 30 mg/kg, sc measured at 12 to 24 hrs (light cycle); assay type: functional, organism-based; conditions: time 12-24 hrs
[5] = Subacute toxicity in male BALB/c mouse assessed as pathologic change in spleen at 150 mg/kg, po administered via gavage for 14 days by H and E staining based analysis; assay type: organism-based; conditions: in vivo, 336 h, time 14 day
[6] = Apparent volume of distribution in male ICR mouse at 2 mg/kg, iv measured after 24 hrs by LC-MS/MS analysis; assay type: ADME, organism-based; conditions: in vivo, read-out: Vz
[7] = Subacute toxicity in male BALB/c mouse assessed as pathologic change in kidney at 150 mg/kg, po administered via gavage for 14 days by H and E staining based analysis; assay type: organism-based; conditions: in vivo, 336 h, time 14 day
[8] = Toxicity in human GLP-1R knockin male mouse model assessed as effect on kidney pathology at 30 mg/kg, sc measured after 24 hrs by H and E staining based analysis; assay type: organism-based; conditions: in vivo
[9] = AUC (0 to t) in male ICR mouse at 10 mg/kg, po measured after 24 hrs by LC-MS/MS analysis; assay type: ADME, organism-based; conditions: in vivo
[10] = Oral bioavailability in male ICR mouse at 10 mg/kg measured after 24 hrs by LC-MS/MS analysis; assay type: ADME, organism-based; conditions: in vivo
[11] = Subacute toxicity in male BALB/c mouse assessed as change in kidney to body weight ratio at 150 mg/kg, po administered via gavage for 14 days; assay type: organism-based; conditions: in vivo, 336 h, time 14 day
[12] = Tmax in male ICR mouse at 10 mg/kg, po measured after 24 hrs by LC-MS/MS analysis; assay type: ADME, organism-based; conditions: in vivo
[13] = Subacute toxicity in male BALB/c mouse assessed as mortality at 150 mg/kg, po administered via gavage for 14 days; assay type: organism-based; conditions: in vivo, 336 h, time 14 day
[14] = AUC (0 to t) in male ICR mouse at 2 mg/kg, iv measured after 24 hrs by LC-MS/MS analysis; assay type: ADME, organism-based; conditions: in vivo
[15] = Toxicity in human GLP-1R knockin male mouse model assessed as effect on BUN level at 30 mg/kg, sc measured after 24 hrs; assay type: organism-based; conditions: in vivo
[16] = biological target: T1, Glucagon-like peptide 1 receptor (Homo sapiens, UniProt P43220); test: Binding affinity to human GLP-1R assessed as dissociation rate constant (Kd) by SPR analysis
[17] = Subacute toxicity in male BALB/c mouse assessed as pathologic change in liver at 150 mg/kg, po administered via gavage for 14 days by H and E staining based analysis; assay type: organism-based; conditions: in vivo, 336 h, time 14 day
[18] = Subacute toxicity in male BALB/c mouse assessed as change in heart to body weight ratio at 150 mg/kg, po administered via gavage for 14 days; assay type: organism-based; conditions: in vivo, 336 h, time 14 day
[19] = Hepatotoxicity in male BALB/c mouse assessed as effect on ALT level at 150 mg/kg, po administered via gavage for 14 days; assay type: toxicity, organism-based; conditions: in vivo, 336 h, time 14 day
[20] = Toxicity in human GLP-1R knockin male mouse model assessed as effect on creatinine level at 30 mg/kg, sc measured after 24 hrs; assay type: organism-based; conditions: in vivo
[21] = Subacute toxicity in male BALB/c mouse assessed as change in liver to body weight ratio at 150 mg/kg, po administered via gavage for 14 days; assay type: organism-based; conditions: in vivo, 336 h, time 14 day
[22] = Clearance in male ICR mouse at 2 mg/kg, iv measured after 24 hrs by LC-MS/MS analysis; assay type: ADME, organism-based; conditions: in vivo
[23] = biological target: T1, Glucagon-like peptide 1 receptor; test: Partial agonist activity at LgBit-tagged GLP-1R (unknown origin) transfected in HEK293 cells co-transfected with Smbit-tagged beta-arrestin-1 assessed as beta-arrestin recruitment by measuring maximal efficacy incubated for 5 mins by envision microplate reader analysis relative to control; assay type: functional, cell-based
[24] = Toxicity in human GLP-1R knockin male mouse model assessed as effect on AST level at 30 mg/kg, sc measured after 24 hrs; assay type: organism-based; conditions: in vivo
[25] = Half-life in male ICR mouse at 10 mg/kg, po measured after 24 hrs by LC-MS/MS analysis; assay type: ADME, organism-based; conditions: in vivo
[26] = Cmax in male ICR mouse at 2 mg/kg, iv measured after 24 hrs by LC-MS/MS analysis; assay type: ADME, organism-based; conditions: in vivo
[27] = Toxicity in human GLP-1R knockin male mouse model assessed as effect on liver pathology at 30 mg/kg, sc measured after 24 hrs by H and E staining based analysis; assay type: organism-based; conditions: in vivo
[28] = MRT (0 to t) in male ICR mouse at 10 mg/kg, po measured after 24 hrs by LC-MS/MS analysis; assay type: ADME, organism-based; conditions: in vivo
[29] = Toxicity in human GLP-1R knockin male mouse model assessed as effect on spleen pathology at 30 mg/kg, sc measured after 24 hrs by H and E staining based analysis; assay type: organism-based; conditions: in vivo
[30] = biological target: T1, Glucagon-like peptide 1 receptor; test: Binding affinity to human GLP-1R assessed as dissociation constant (KD) by SPR analysis
[31] = Toxicity in human GLP-1R knockin male mouse model assessed as effect on lung pathology at 30 mg/kg, sc measured after 24 hrs by H and E staining based analysis; assay type: organism-based; conditions: in vivo
[32] = Subacute toxicity in male BALB/c mouse assessed as change in lung to body weight ratio at 150 mg/kg, po administered via gavage for 14 days; assay type: organism-based; conditions: in vivo, 336 h, time 14 day
[33] = Protein binding in mouse plasma at 2 uM; assay type: ADME, cell-free; conditions: read-out: PPB (converted)
[34] = Nephrotoxicity in male BALB/c mouse assessed as effect on blood urea nitrogen level at 150 mg/kg, po administered via gavage for 14 days; assay type: toxicity, organism-based; conditions: in vivo, 336 h, time 14 day
[35] = Subacute toxicity in male BALB/c mouse assessed as body weight loss at 150 mg/kg, po administered via gavage for 14 days; assay type: organism-based; conditions: in vivo, 336 h, time 14 day
[36] = Cmax in male ICR mouse at 10 mg/kg, po measured after 24 hrs by LC-MS/MS analysis; assay type: ADME, organism-based; conditions: in vivo
[37] = Subacute toxicity in male BALB/c mouse assessed as change in spleen to body weight ratio at 150 mg/kg, po administered via gavage for 14 days; assay type: organism-based; conditions: in vivo, 336 h, time 14 day
[38] = biological target: T1, Glucagon-like peptide 1 receptor; test: Partial agonist activity at LgBit-tagged GLP-1R (unknown origin) transfected in HEK293 cells co-transfected with Smbit-tagged beta-arrestin-1 assessed as beta-arrestin recruitment incubated for 5 mins by envision microplate reader analysis; assay type: functional, cell-based
Mus musculus [39] = test: Antidiabetic activity in human GLP-1R knockin male mouse model assessed as reduction in blood glucose level at 2 mg/kg, IG preadministered with compound for 1 hrs followed by first dose of glucose administration for 3 hrs and measured after 270 mins of second glucose administration by oral glucose tolerance test; assay type: functional, organism-based; conditions: time 510.0 min
[40] = Hepatotoxicity in male BALB/c mouse assessed as effect on AST level at 150 mg/kg, po administered via gavage for 14 days; assay type: toxicity, organism-based; conditions: in vivo, 336 h, time 14 day
[41] = Toxicity in human GLP-1R knockin male mouse model assessed as effect on heart pathology at 30 mg/kg, sc measured after 24 hrs by H and E staining based analysis; assay type: organism-based; conditions: in vivo
[42] = Nephrotoxicity in male BALB/c mouse assessed as decrease in creatinine level at 150 mg/kg, po administered via gavage for 14 days; assay type: toxicity, organism-based; conditions: in vivo, 336 h, time 14 day
[43] = Unbound Cmax in male ICR mouse at 10 mg/kg, po measured after 24 hrs by LC-MS/MS analysis; assay type: ADME, organism-based; conditions: in vivo
[44] = MRT (0 to t) in male ICR mouse at 2 mg/kg, iv measured after 24 hrs by LC-MS/MS analysis; assay type: ADME, organism-based; conditions: in vivo
[45] = Half-life in male ICR mouse at 2 mg/kg, iv measured after 24 hrs by LC-MS/MS analysis; assay type: ADME, organism-based; conditions: in vivo
[46] = Subacute toxicity in male BALB/c mouse assessed as pathologic change in heart at 150 mg/kg, po administered via gavage for 14 days by H and E staining based analysis; assay type: organism-based; conditions: in vivo, 336 h, time 14 day
[47] = Subacute toxicity in male BALB/c mouse assessed as pathologic change in lung at 150 mg/kg, po administered via gavage for 14 days by H and E staining based analysis; assay type: organism-based; conditions: in vivo, 336 h, time 14 day
[48] = Toxicity in human GLP-1R knockin male mouse model assessed as effect on ALT level at 30 mg/kg, sc measured after 24 hrs; assay type: organism-based; conditions: in vivo
[49] = Protein binding in mouse plasma at 2 uM assessed as unbound fraction; assay type: ADME, cell-free
[50] = biological target: T1, Glucagon-like peptide 1 receptor; test: Binding affinity to human GLP-1R assessed as association rate constant by SPR analysis; conditions: filed as agonist
[51] = biological target: T1, Glucagon-like peptide 1 receptor; test: Agonist activity at human GLP-1R expressed in HEK293 cells assessed as cAMP accumulation incubated for 30 mins by LANCE ultra cAMP assay; assay type: functional, cell-based

T1 sequence (P43220 whole entry): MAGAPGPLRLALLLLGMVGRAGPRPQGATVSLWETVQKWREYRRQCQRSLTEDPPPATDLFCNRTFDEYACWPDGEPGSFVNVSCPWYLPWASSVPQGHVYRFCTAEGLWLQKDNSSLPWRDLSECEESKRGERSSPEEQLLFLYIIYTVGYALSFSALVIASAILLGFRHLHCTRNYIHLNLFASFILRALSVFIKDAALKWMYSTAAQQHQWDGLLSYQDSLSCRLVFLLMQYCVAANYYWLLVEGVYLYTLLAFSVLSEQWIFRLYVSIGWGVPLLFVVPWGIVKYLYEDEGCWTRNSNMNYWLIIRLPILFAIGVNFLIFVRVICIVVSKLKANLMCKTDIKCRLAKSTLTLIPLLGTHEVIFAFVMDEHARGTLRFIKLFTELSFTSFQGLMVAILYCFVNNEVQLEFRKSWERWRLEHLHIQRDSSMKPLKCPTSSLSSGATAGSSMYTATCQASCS

N#Cc1ccc(COc2cccc(C3CCN(Cc4nc5ccc(C(=O)O)cc5n4C[C@@H]4CCO4)CC3)n2)c(F)c1
Activity (Mus musculus [1]): Active | Activity (Mus musculus [2]): Active | Activity (Mus musculus [3]): Active | Activity (Mus musculus [4]): Active

COc1cc(C#N)ccc1C[Se]c1cccc(C2CCN(Cc3nc4ccc(C(=O)O)cc4n3C[C@@H]3CCO3)CC2)n1
Activity [5]: Non-toxic | Activity (Mus musculus [1]): Active | Vd [6]: 1.18 L/kg | Activity [7]: Non-toxic | Activity [8]: Non-toxic | AUC(0-t) at 24 h [9]: 5540 ng·h/mL | bioavailability [10]: 20.4% | Activity [11]: Non-toxic | Tmax [12]: 0.5 h | Activity [13]: Non-toxic | AUC(0-t) at 24 h [14]: 5460 ng·h/mL | Activity [15]: Non-toxic | Kd [16]: 5.53 10^-3/s | Activity [17]: Non-toxic | Activity [18]: Non-toxic | Activity [19]: Non-toxic | Activity [20]: Non-toxic | Activity [21]: Non-toxic | clearance [22]: 6.12 mL/min/kg | Emax [23]: 13% | Activity [24]: Non-toxic | half-life [25]: 5.13 h | Cmax [26]: 8110 ng/mL | Activity [27]: Non-toxic | MRT last at 24 h [28]: 1.91 h | Activity [29]: Non-toxic | Kd [30]: 1 µM | Activity [31]: Non-toxic | Activity [32]: Non-toxic | fraction unbound at 2 µM [33]: 0.02 | Activity [34]: Non-toxic | Activity [35]: Non-toxic | Cmax [36]: 4960 ng/mL | Activity [37]: Non-toxic | EC50 [38]: > 200 µM | Activity (Mus musculus [39]): Active | Activity [40]: Non-toxic | Activity [41]: Non-toxic | Activity [42]: Toxic | Activity (Mus musculus [3]): Active | fCmax [43]: 99.21 ng/mL | MRT last at 24 h [44]: 0.77 h | half-life [45]: 2.22 h | Activity [46]: Non-toxic | Activity [47]: Non-toxic | Activity [48]: Non-toxic | fraction unbound at 2 µM [49]: 0.02 | Activity (Mus musculus [4]): Active | Ka [50]: 5.52 10^3/M.s

CC(C)[C@@H](NCc1nc2ccc(C(=O)O)cc2n1C[C@@H]1CCO1)C(=O)Nc1cccc([Se]Cc2ccc(C#N)cc2F)n1
EC50 [51]: > 200 µM

COc1cc(C#N)ccc1C[Se]c1cccc(N2C=NN(Cc3nc4c(F)cc(C(=O)O)cc4n3C[C@@H]3CCO3)CC2)n1
Vd [6]: 4.25 L/kg | AUC(0-t) at 24 h [9]: 537 ng·h/mL | bioavailability [10]: 3.38% | Tmax [12]: 0.5 h | AUC(0-t) at 24 h [14]: 3260 ng·h/mL | clearance [22]: 10.3 mL/min/kg | Emax [23]: 12% | half-life [25]: 7.02 h | Cmax [26]: 13400 ng/mL | MRT last at 24 h [28]: 2.88 h | Cmax [36]: 324 ng/mL | EC50 [38]: > 200 µM | MRT last at 24 h [44]: 0.4 h | half-life [45]: 4.52 h
